The record followed here is patent US11549017B2, “NIR to SWIR fluorescent compounds for imaging and detection” (PERKINELMER HEALTH SCIENCES, INC., priority 2017, dated 2023).

Structures are written as SMILES. Values joined by “and” are separate entries in the source; they are usually repeats but may differ in a detail not shown here. Identical values can stand only once.

Common to all, as to type: physicochemical
Data set [1] in a line: Absorbance spectra / absorbance maximum in solvents (UV/vis spectrophotometer). An excerpt:
Normalized spectra thus obtained are shown in FIG. 1 for each fluorochrome compound. […]

The nature of data set [2]: Fluorescence emission spectra with excitation at 980 nm (InGaAs NIR detector). The settings on record: for fluorescence emission in water: aqueous solution. The protocol:
The emission of D2 was measured in acetonitrile (ACN), ethanol (EtOH), methanol (MeOH). Spectra were recorded on a Quantamaster 8075-21 fluorescence spectrophotometer equipped with a liquid nitrogen cooled cooled DSS-IGA020L/CUS InGaAs NIR detector with excitation at 980 nm and emission recorded from 1000 nm to 1200 nm. The emission spectra as illustrated in FIG. 2 are at equal absorbance at 980 nm for each solvent.
The fluorescence spectra for an equal absorbance ˜0.13 solution of dyes A, B, C in dichloroethane were determined by exciting at 980 nm (Horiba (Quantamaster 8075-21), nitrogen cooled InGaAs detector) and compared them with a commercially available dye, IR-26 (obtained from Exciton) D as reference. Dye B is more than 2 fold brighter than the reference IR-26 in DCE as illustrated in FIG. 3.
The fluorescence of dyes A, B and C were also determined in other solvents viz., methanol, ethanol, DMSO and water. […]

Data set [3] in a line: Absorbance spectra / absorbance maximum in solvents (UV/vis spectrophotometer). The source holds these as a separate data set.
The mark [4] stands for this setting: DCE, excitation 980 nm, equal absorbance ~0.13.

`O=C(O)Cn1\c(=C/C=C/C=C/C=C/C2=[N+](CC(=O)O)c3ccc(S(=O)(=O)[O-])c4cccc2c34)c2cccc3c(S(=O)(=O)O)ccc1c32` [D19]: in data set [1] (methanol), the “Abs λmax (absorbance max, UV-Vis λmax)” value was 980 nm and ~1010 nm.
On the same count and under the same terms, the figure for `CC1(C)C(/C=C/C=C/C=C/C=c2/c3cccc4c(S(=O)(=O)O)ccc(c43)n2CCCC(=O)O)=[N+](CCCS(=O)(=O)[O-])c2ccc3c(S(=O)(=O)O)cc(S(=O)(=O)O)cc3c21` [D86] is ~890 nm; for `O=S(=O)([O-])CCC[N+]1=C(/C=C/C2=C(Cl)C(=C/C=c3/c4cccc5cccc(c54)n3CCCS(=O)(=O)O)/CCC2)c2cccc3cccc1c23` [D84] it is ~1020 nm.
Same read-out and setting: next, `O=S(=O)(O)CCCn1/c(=C\C=C2/CCCC(/C=C/C3=[N+](CCCS(=O)(=O)O)c4ccc(S(=O)(=O)[O-])c5cccc3c45)=C2Cl)c2cccc3c(S(=O)(=O)O)ccc1c32` [D85]: ~1030 nm.
As to `O=S(=O)([O-])CCC[N+]1=C(/C=C/C2=C(Cl)C(=C/C=c3/c4cccc5cccc(c54)n3CCCS(=O)(=O)O)/C3CCC2C3)c2cccc3cccc1c23` (centres unmarked) [D72], the “Abs λmax (absorbance max, UV-Vis λmax)” value in data set [1] (methanol) is recorded as ~1030 nm. In data set [1] (methanol, unit not given), the “Abs λmax” value came out at 1026.
Take `CCn1/c(=C/C=C2\CCCC(/C=C/C3=[N+](CC)c4cccc5c(S(=O)(=O)[O-])ccc3c45)=C2Cl)c2ccc(S(=O)(=O)O)c3cccc1c32` [A]: the “% Fluorescence Relative to C” value is given as 90.11% in data set [2] (DCE), 29.46% in data set [2] (DMSO), 92.92% in data set [2] (EtOH) and 86.00% in data set [2] (MeOH). The “Fluorescence Max” value in data set [2] (setting [4]) came to 1064 nm; in data set [2] (DMSO, excitation 980 nm) it was 1080 nm; in data set [2] (EtOH, excitation 980 nm), 1050 nm; in data set [2] (MeOH, excitation 980 nm), 1046 nm. Further, in data set [2], the “fluorescence emission in water” value is reported as “highly quenched”.
Turning to `O=S(=O)([O-])CCCC[N+]1=C(/C=C/C2=C(Cl)C(=C/C=c3\c4cccc5cccc(c54)n3CCCCS(=O)(=O)O)/CCC2)c2cccc3cccc1c23` [C], the “% Fluorescence Relative to C” value in data set [2] (DCE), in data set [2] (DMSO), in data set [2] (EtOH) and in data set [2] (MeOH) was 1.00% each time. The “Fluorescence Max” value in data set [2] (setting [4]) came to 1062 nm; in data set [2] (DMSO, excitation 980 nm) it was 1074 nm; in data set [2] (EtOH, excitation 980 nm), 1046 nm; in data set [2] (MeOH, excitation 980 nm) it was 1042 nm. In addition, the “fluorescence emission in water” value in data set [2] is listed as “highly quenched”.
For the compound `O=C(O)C[N+]1=C(/C=C/C=C/C=C/C=c2/c3cccc4c(S(=O)(=O)O)ccc(c43)n2CCCS(=O)(=O)O)c2cccc3c(S(=O)(=O)[O-])ccc1c23` [D18], the “Abs λmax (absorbance max, UV-Vis λmax)” value in data set [1] (methanol) was 970 nm and ~990 nm.
As for `Cn1/c(=C\C=C2C(Cl)=C(/C=C/C3=[N+](C)c4ccc(S(=O)(=O)[O-])c5cccc3c45)C3CCC\2C3)c2cccc3c(S(=O)(=O)O)ccc1c32` (centres unmarked) [D81], in data set [1] (methanol), the “Abs λmax (absorbance max, UV-Vis λmax)” value is on record as ~1026 nm.
As to `ClC1=C(/C=C/c2cc(-c3ccccc3)[s+]c3ccccc23)CCC/C1=C\C=C1/C=C(c2ccccc2)Sc2ccccc21.[O-][Cl+3]([O-])([O-])[O-]` [D (IR-26), IR-26, reference compound], in data set [2] (DCE), the “% Fluorescence Relative to C” value amounted to 58.89%. The “Fluorescence Max” value in data set [2] (setting [4]) worked out at 1118 nm.
With `CCOC(=O)C1(C(=O)OCC)CC(/C=C/C2=[N+](CCCS(=O)(=O)O)c3ccc(S(=O)(=O)[O-])c4cccc2c34)=CC(=C/C=c2\c3cccc4c(S(=O)(=O)O)ccc(c43)n2CCCS(=O)(=O)O)/C1` [D75], in data set [1] (methanol), the “Abs λmax (absorbance max, UV-Vis λmax)” value came to 990 nm.
Turning to `Cn1/c(=C\C=C2/CCCC(/C=C/C3=[N+](C)c4ccc(S(=O)(=O)[O-])c5cccc3c45)=C2Cl)c2cccc3c(S(=O)(=O)O)ccc1c32` [D82], the “Abs λmax (absorbance max, UV-Vis λmax)” value in data set [1] (methanol) is on record as ~1020 nm.
The same measure, in the same setting: the figure for `O=C(O)CCCn1\c(=C/C=C/C=C/C=C/C2=[N+](CCCC(=O)O)c3ccc(S(=O)(=O)[O-])c4cccc2c34)c2cccc3c(S(=O)(=O)O)ccc1c32` [D17] is ~990 nm.
Turning to `CCn1/c(=C/C=C2C(Cl)=C(/C=C/C3=[N+](CC)c4cccc5c(S(=O)(=O)[O-])ccc3c45)C3CCC/2C3)c2ccc(S(=O)(=O)O)c3cccc1c32` (centres unmarked) [B], the “% Fluorescence Relative to C” value in data set [2] (DCE) came out at 130.82%; in data set [2] (DMSO), 80.53%; in data set [2] (EtOH), 76.31%; in data set [2] (MeOH), 94.80%. In addition, the “Fluorescence Max” value in data set [2] (setting [4]) is given as 1080 nm; in data set [2] (DMSO, excitation 980 nm), 1092 nm; in data set [2] (EtOH, excitation 980 nm) it was 1062 nm; in data set [2] (MeOH, excitation 980 nm), 1056 nm. Moreover, the “fluorescence emission in water” value in data set [2] is on record as “highly quenched”. In data set [2] (in DCE, excitation 980 nm, equal absorbance), the “brightness relative to the reference IR-26” value was “more than 2 fold”.
In the case of `O=C(O)CCCn1\c(=C/C=C/C=C/C=C/C2=[N+](CCCS(=O)(=O)O)c3ccc(S(=O)(=O)[O-])c4cccc2c34)c2cccc3c(S(=O)(=O)O)ccc1c32` [D13], the “Abs λmax (absorbance max, UV-Vis λmax)” value in data set [1] (methanol) is given as ~980 nm.
As for `C[N+]1=C(/C=C/C=C/C=C/C=c2/c3cccc4c(S(=O)(=O)O)ccc(c43)n2CCCC(=O)O)c2cccc3c(S(=O)(=O)[O-])ccc1c23` [D20], in data set [1] (methanol), the “Abs λmax (absorbance max, UV-Vis λmax)” value was ~980 nm.
As to `CCn1/c(=C\C=C2/CCCC(/C=C/C3=[N+](CC)c4ccc(S(=O)(=O)O)c5cccc3c45)=C2Cl)c2cccc3c(S(=O)(=O)O)ccc1c32` [compound 26], the Absorption max is 1022 nm in data set [1] (in Methanol); 829 nm in data set [1] (in Water); 1019 nm in data set [3] (in Acetonitrile); 820 nm in data set [3] (in Chloroform); 1069 nm and 1065 nm in data set [3] (in DMSO); 810 nm in data set [3] (in Dichloromethane). Also, in data set [3] (in Ethanol), the Absorption max is listed as 1032 nm.
For the compound `O=C(O)CCCn1/c(=C/C=C/C=C/C=C/C2=[N+](CCCC(=O)O)c3ccc(S(=O)(=O)[O-])c4cccc2c34)c2cccc3c(S(=O)(=O)O)ccc1c32` [D74], the “Abs λmax (absorbance max, UV-Vis λmax)” value in data set [1] (methanol) is 980 nm.
Still for that read-out and setting: next, `O=S(=O)([O-])CCC[N+]1=C(/C=C/C2=C(Cl)C(=C/C=c3/c4cccc5c(S(=O)(=O)O)ccc(c54)n3CCCS(=O)(=O)O)/C3CCC2C3)c2cccc3c(S(=O)(=O)O)ccc1c23` (centres unmarked) [D15]: ~1030 nm; `CCn1\c(=C/C=C(/C=C/C2=[N+](CC)c3ccc(S(=O)(=O)O)c4cccc2c34)c2ccc(C(=O)O)cn2)c2cccc3c(S(=O)(=O)O)ccc1c32` [D71]: 851 nm.
